Measurements as given in patent US20230398135A1, “COMPOSITIONS INCLUDING CANNABINOID AND USE THEREOF IN THE MANUFACTURE OF A MEDICAMENT FOR THE TREATMENT OF INFLAMMATION IN A SUBJECT” (priority 2022, published 2023).

Assays:
TNF-α = experiment: suppression of TNF-α in inflammatory model induced by lipopolysaccharides and nigericin; assay type: cell-based; details: 20 μM; LPS and nigericin model
Description: (§1) FIGS. 7 and 8 are bar diagrams illustrating exemplary abilities of CBG, BAK, and a composition (i.e., Mix) of CBD, CBG, and BAK at a molar concentration of 1:1:1 to suppress activities of pro-inflammatory cytokines according to some embodiments of the present disclosure. In FIGS. 7 and 8, Model represents an inflammatory model that was induced by lipopolysaccharides and nigericin. The abilities/functions of CBG, BAK, and Mix to suppress pro-inflammatory cytokines in FIGS. 7 and 8 were measured at a total CBD/CBG/BAK molar concentration of 20 μM. An ability/function to suppress activity of a pro-inflammatory cytokine was reflected by a remaining concentration of the pro-inflammatory cytokine after the reaction. The greater the remaining concentration of the pro-inflammatory cytokine, the worse the ability to suppress activity of the pro-inflammatory cytokine.

COX-2 [1] = target: T1, COX-2 (Homo sapiens, UniProt P35354); experiment: fluorometric COX-2 inhibition assay (BioVision kit); assay type: biochemical; details: for COX-2 inhibitory effect compared with personal care ingredients (terpenes): all at 50 μM, FIGS. 4-6; for inhibition at 10 µM / inhibition at 50 µM: read-out: COX-2 Inhibition (%); for inhibition at 12.5 µM: read-out: COX-2 inhibitions (FIG. 5)
T1 construct: purchased BioVision Inc. (Mountain View, CA, USA)
T1 sequence (P35354 18-604): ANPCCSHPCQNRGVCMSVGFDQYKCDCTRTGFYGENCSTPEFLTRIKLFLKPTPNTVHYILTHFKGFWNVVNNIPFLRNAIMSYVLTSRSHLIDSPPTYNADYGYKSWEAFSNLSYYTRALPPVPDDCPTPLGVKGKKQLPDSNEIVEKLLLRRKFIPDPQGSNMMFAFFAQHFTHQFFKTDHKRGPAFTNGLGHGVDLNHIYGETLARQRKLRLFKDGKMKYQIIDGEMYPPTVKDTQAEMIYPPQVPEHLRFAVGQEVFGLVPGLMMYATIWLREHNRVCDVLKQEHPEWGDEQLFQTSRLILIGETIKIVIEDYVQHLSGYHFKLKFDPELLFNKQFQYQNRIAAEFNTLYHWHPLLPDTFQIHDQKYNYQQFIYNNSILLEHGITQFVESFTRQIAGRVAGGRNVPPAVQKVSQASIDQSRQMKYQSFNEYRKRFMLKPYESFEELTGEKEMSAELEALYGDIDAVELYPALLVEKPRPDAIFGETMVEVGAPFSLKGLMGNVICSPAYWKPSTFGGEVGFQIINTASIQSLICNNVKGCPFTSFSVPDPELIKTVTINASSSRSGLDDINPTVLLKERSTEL
Description: The COX-2 inhibitory effects in FIGS. 4-6 were determined using a fluorometric COX-2 inhibition kit from BioVision Inc. (Mountain View, CA, USA) according to the methods described in COX-2 inhibition assay. The personal care ingredients Lim, Lin, Ner, Myc, α-pin, β-car, and α-bis represent limonene, linalool, nerolidol, myrcene, alpha-pinene, beta-caryophyllene, and alpha-bisabolol, respectively. In FIGS. 5 and 6, MIX represents a composition (or mixture) of CBD, CBG, and BAK at a molar concentration ratio of 1:1:1. MIX 50 μM, MIX 25 μM, and 12.5 μM represent total CBD/CBG/BAK molar concentrations of MIX being 50 μM, 25 μM, and 12.5 μM, respectively. CBD 50 μM represents that CBD is used individually and a molar concentration of CBD is 50 μM.
Materials and methods: the inhibitory effects of test samples (e.g., CBD, CBG, BAK, Mix, a positive control, and/or other compounds and compositions described in the present disclosure) against COX-2 were measured by a fluorometric COX-2 inhibition kit from Cayman Chemicals (Ann Arbor, Michigan, USA) or BioVision Inc. (Mountain View, CA, USA) following the manufacturer's instructions. Briefly, a COX-2 enzyme was reconstituted with 110 μL of sterile distilled H2O and arachidonic acid was dissolved in 55 μL ethanol. COX cofactor was diluted with COX assay buffer for 200 times, and arachidonic acid and NaOH were mixed in a molar ratio of 1:1 before it was diluted for 10 times for further use. COX assay buffer (84 μL), COX probe (1 μL), diluted COX cofactor (2 μL), COX-2 enzyme (1 μL), and test samples (2 μL) were incubated in a 96-well plate at room temperature for 10 min. Next, diluted arachidonic acid/NaOH solution (10 μL) was added to each well of the 96-well plate to initiate the reaction. The fluorescence of each well was recorded at an excitation wavelength of 535 nm and an emission wavelength of 587 nm with a kinetic mode for 10 min using a plate reader (SpectraMax® M2, Molecular Devices Corp., operated by SoftmaxPro® v.4.6 software, Sunnyvale, CA, USA). […] Two points (T1 and T2) in a linear range of a plot related to the recorded fluorescence were used to obtain corresponding fluorescence values (RFU1 and RFU2). Then, a slope for a sample was calculated by dividing a net ΔRFU (RFU2-RFU1) value by the time ΔT (T2-T1). An inhibition (%) of COX-2 of the sample was determined as the following equation: Inhibition (%)=((slope of control−slope of the sample)/slope of control)×100.

[2] = antioxidant DPPH assay (free radical scavenging); details: used individually
Description: In some embodiments, the composition may have an antioxidant activity/effect. FIG. 10 is a bar diagram illustrating antioxidant effects of CBD, CBG, and BAK used individually according to some embodiments of the present disclosure. In some embodiments, data in the bar diagram in FIG. 10 was determined (e.g., measured) according to an antioxidant DPPH (i.e., α, α-diphenyl-β-picrylhydrazyl) assay that was well known for the skills in the art. An antioxidant effect was reflected by free radical scavenging after the reaction. The greater the free radical scavenging, the better the antioxidant effect.

COX-2 [3] = target: T1, COX-2; experiment: fluorometric COX-2 inhibition assay (Cayman Chemical kit); assay type: biochemical; details: for inhibition at 50 µM: read-out: COX-2 Inhibition (%); for COX-2 inhibition corresponding to plateau (FIGS. 3A, 3B): after molar concentrations exceeded 10 μM; for COX-2 inhibitory effect (FIG. 1): used individually at 50 μM, 10 μM, 2 μM, 0.04 μM
Description: FIG. 1 is a bar diagram illustrating COX-2 inhibitory effects of CBD and CBG used individually at different molar concentrations according to some embodiments of the present disclosure. Table 1 illustrates COX-2 inhibitory effects of some skincare active components used individually according to some embodiments of the present disclosure. The COX-2 inhibitory effects in FIG. 1 and Table 1 were determined using a fluorometric COX-2 inhibition kit from Cayman Chemical Company (Ann Arbor, Michigan, USA) according to the method of COX-2 inhibition assay as described elsewhere in the present disclosure.
Table 2 illustrates COX-2 inhibitory effects of exemplary compositions of CBD and CBG according to some embodiments of the present disclosure. The COX-2 inhibitory effects in Table 2 were determined using a fluorometric COX-2 inhibition kit from Cayman Chemical Company (Ann Arbor, Michigan, USA) according to the method of COX-2 inhibition assay as described elsewhere in the present disclosure. The compositions A, B, and C in Table 2 may be at 10 μM.
FIG. 2 is a bar diagram illustrating COX-2 inhibitory effects of CBD and CBG used individually and in combination at different molar concentrations according to some embodiments of the present disclosure. The COX-2 inhibitory effects in FIG. 1 and Table 1 were determined using a fluorometric COX-2 inhibition kit from Cayman Chemical Company (Ann Arbor, Michigan, USA) according to the method of COX-2 inhibition assay as described in the present disclosure. In FIG. 2. COMIX represents a composition (or mixture) of CBD, CBG, NMN, BAK, AGE Defense, and RC Bio. Concentrations of CBD, CBG, NMN, BAK, AGE Defense, and RC Bio in COMIX were 10 ug/mL, 2 ug/mL, 2 ug/mL, 2 ug/mL, 2 ug/mL, and 2 ug/mL, respectively. The COX-2 inhibitory effect of COMIX was measured for providing an assay basis for designing subsequent COX-2 inhibition assays. MIX′ represents a composition (or mixture) of CBD and CBG at a molar concentration ratio of 1:1. […] When a total CBD/CBG molar concentration of MIX′ was 0.5 μM, molar concentrations of CBD and CBG in MIX′ were 0.25 μM. Similarly, when a total CBD/CBG molar concentration of MIX′ was 1.0 μM, molar concentrations of CBD and CBG in MIX′were 0.5 μM; when a total CBD/CBG molar concentration of MIX′ was 5 μM, molar concentrations of CBD and CBG in MIX were 2.5 μM; when a total CBD/CBG molar concentration of MIX′ was 10 μM, molar concentrations of CBD and CBG in MIX′ were 5 μM; and when a total CBD/CBG molar concentration of MIX′ was 20 μM, molar concentrations of CBD and CBG in MIX′ were 10.0 μM.
Materials and methods: the inhibitory effects of test samples (e.g., CBD, CBG, BAK, Mix, a positive control, and/or other compounds and compositions described in the present disclosure) against COX-2 were measured by a fluorometric COX-2 inhibition kit from Cayman Chemicals (Ann Arbor, Michigan, USA) or BioVision Inc. (Mountain View, CA, USA) following the manufacturer's instructions. Briefly, a COX-2 enzyme was reconstituted with 110 μL of sterile distilled H2O and arachidonic acid was dissolved in 55 μL ethanol. COX cofactor was diluted with COX assay buffer for 200 times, and arachidonic acid and NaOH were mixed in a molar ratio of 1:1 before it was diluted for 10 times for further use. COX assay buffer (84 μL), COX probe (1 μL), diluted COX cofactor (2 μL), COX-2 enzyme (1 μL), and test samples (2 μL) were incubated in a 96-well plate at room temperature for 10 min. Next, diluted arachidonic acid/NaOH solution (10 μL) was added to each well of the 96-well plate to initiate the reaction.

IL-1β = experiment: suppression of IL-1β in inflammatory model, cell level; assay type: cell-based; details: 20 μM; LPS and nigericin model
Description: as §1
FIG. 9 is a bar diagram illustrating exemplary abilities of a composition (i.e., Mix) of CBD, CBG, and BAK at a molar concentration of 1:1:1 at different molar concentrations to suppress activity of […] according to some embodiments of the present disclosure. In FIG. 9, Model represents an inflammatory model which was different from that in FIG. 8. […]

Compound | remaining concentration of TNF-α versus Model (FIG. 7) (TNF-α) | COX-2 inhibitory effect compared with personal care ingredients (terpenes) (COX-2 [1]) | inhibition at 10 µM (COX-2 [1]) [%] | inhibition at 50 µM (COX-2 [1]) [%] | inhibition at 12.5 µM (COX-2 [1]) [%] | antioxidant effect compared with the other compounds (FIG. 10) [2] | antioxidant effect, free radical scavenging (FIG. 10) [2] | inhibition at 50 µM (COX-2 [3]) [%] | remaining concentration of IL-1β versus Model (FIG. 8) (IL-1β) | COX-2 inhibition corresponding to plateau (FIGS. 3A, 3B) (COX-2 [3]) | COX-2 inhibitory effect (FIG. 1) (COX-2 [3]) | COX-2 Inhibition (%) (COX-2 [3]; compound used individually at 50 μM)
C=C[C@@](C)(/C=C/c1ccc(O)cc1)CCC=C(C)C [BAK, bakuchiol] | lower than the remaining concentration of TNF-α corresponding to Model | better COX-2 inhibitory effects than the personal care ingredients | 45 | 67.3 | ~60 | better antioxidant effect than CBG and CBG | had an antioxidant effect | 81.9 | had an activity to suppress activity of IL-113 |  |  | 
C=C(C)[C@@H]1CCC(C)=C[C@H]1c1c(O)cc(CCCCC)cc1O [CBD, cannabidiol, reference compound] |  | better COX-2 inhibitory effects than the personal care ingredients | 42 | 52.5 | ~60 |  | had an antioxidant effect | 71.9 |  | about 60% | had a COX-2 inhibitory effect | 
CCCCCc1cc(O)c(C/C=C(\C)CCC=C(C)C)c(O)c1 [CBG, cannabigerol] | lower than the remaining concentration of TNF-α corresponding to Model | better COX-2 inhibitory effects than the personal care ingredients | 51.9 | 65.7 | ~60 |  | had an antioxidant effect | 87.4 | had an activity to suppress activity of IL-113 | about 60% | had a COX-2 inhibitory effect | 
Cn1c(=O)c2c(ncn2C)n(C)c1=O [Caffeine, caffeine, reference compound] |  |  |  |  |  |  |  | 63.5 |  |  |  | 
NC(=O)c1ccc[n+]([C@@H]2O[C@H](COP(=O)([O-])O)[C@@H](O)[C@H]2O)c1 [NMN, nicotinamide mononucleotide] |  |  |  |  |  |  |  |  |  |  |  | 19.63
